System: pancreatic adenocarcinoma
Assay: Overall survival (OS) by baseline plasma analytes, CALGB 80303 gemcitabine +/- bevacizumab
Assay type: in vivo, human
Source text: Eligibility of patients evaluated in this correlative analysis was described previously (Kindler et al., J Clin Oncol 2010 28(22):3617-3622). Briefly, eligible patients had histologically- or cytologically-confirmed pancreatic adenocarcinoma not amenable to curative surgery. Measurable disease was not required. Prior chemotherapy for metastatic disease was not permitted. […] Prior radiation was allowed if it was completed at least 4 weeks prior to enrollment and there was disease outside the radiation port. Patients were required to be at least 18 years of age and have a life expectancy of at least 12 weeks. Written informed consent was obtained from all patients participating in this correlative analysis.
Gemcitabine (1,000 mg/m^2) was administered intravenously over 30 minutes on days 1, 8, and 15 of a 28-day cycle. […]
Patterns of expression were analyzed at baseline and were correlated with overall survival (OS) and progression free survival (PFS) using univariate Cox proportional hazard regression models and multivariate Cox models with leave-one-out cross validation. Spearman's rank correlation coefficients were calculated for all pairs of analytes. […]
The primary endpoint of interest will be overall survival (OS) with correlation to the blood analytes; however, progression-free survival (PFS) was evaluated. […]

bevacizumab: monoclonal antibody against VEGF
benefit from bevacizumab (overall survival) (VEGF-D above Q1, more than 1092.35 pg/mL, p=0.035): predicted for lack of benefit
benefit from bevacizumab (overall survival) (VEGF-D below Q1, less than 1092.35 pg/mL, p=0.033): predicted for benefit
